The values below come from patent US9278991B2, “Anhydrous polymorphs of [(2R,3S,4R,5R)-5-(6-(cyclopentylamino)-9H-purin-9-yl)-3,4-dihydroxytetrahydrofuran-2-yl)} methyl nitrate and processes of preparation thereof” (Inotek Pharmaceuticals Corporation, priority 2012, dated 2016).

Holding throughout (format): physicochemical
The nature of data set [1]: Curing (ripening) of Compound A aqueous suspension at 40 degrees C: conversion of form A1 to A2, followed by particle size, XRPD and microphotography. How it is done:
XRPD patterns were obtained using a high-throughput XRPD set-up. The plates were mounted on a Bruker GADDS diffractometer equipped with a Hi-Star area detector. The XRPD platform was calibrated using Silver Behenate for the long d-spacings and Corundum for the short d-spacings.
Data collection was carried out at room temperature using monochromatic CuKα radiation in the 2-theta region between 1.5 degrees and 41.5 degrees, which is the most distinctive part of the XRPD pattern between the polymorph forms. The diffraction pattern of each well was collected in 2 theta ranges (1.5 degrees≦2 theta≦21.5 degrees for the first frame, and 19.5 degrees≦2 theta≦41.5 degrees for the second) with an exposure time of 30 seconds for each frame. No background subtraction or curve smoothing was applied to the XRPD patterns. The carrier material used during XRPD analysis was transparent to X-rays and contributed only slightly to the background.
As described above the Form A1 can be obtained predominantly via recrystallization from ethanol or under slow evaporation conditions. It has also been established that ripening or curing of Compound A particles suspended in an aqueous suspension formulated for ocular delivery at 40 degrees C. for a relatively short period of time formed polymorph form A2 from polymorph form A1. The aqueous suspension samples were kept at 40 degrees C. for up to 108 hours and monitored by particle size measurement, XRPD and microphotography. […] XRPD analyses indicated a change in polymorph content from about 74% A1 to 26% A2 at time zero to 0% A1 to 100% A2 at 108 hours at 40 degrees C. […] Also, habit changes coupled with A2 growth were reflected in the XRPD patterns and could be monitored by a difference in selected peak intensities from planes within the crystal lattice perpendicular to the c axis that change in intensity as the habit of the crystal changes.
(§1) The particle size analyses were performed on a Cilas 1180 Particle Size Analyzer. The parameters used were liquid mode, sample refractive index=1.62 (determined using Cargille immersion oils), liquid refractive index=1.333 (value for water), 30 second measurement, 180 rpm stifling, 120 rpm pump circulation, no sonication, 5 repeat measurements.

A short description of data set [2]: Storage of aqueous suspension ocular formulation containing Compound A in the A1 polymorph at 2-8° C. On the procedure: When the aqueous suspension ocular formulation containing Compound A in the A1 polymorph is stored at 2-8° C., a temperature required to limit decomposition of Compound A over long term storage, the habit of the suspended particles changes slowly over a period of 6 to 12 months. During this time the small irregular particles of suspended drug change to rod-like habits, with many particles having a length along the longest dimension over 100 microns.

The nature of data set [3]: Long term stability and particle size growth of cured (A2) aqueous formulation lots at 5 and 25 degrees Celsius. As to conditions: aqueous suspension, 6 month period at either 5° C. or 25° C. On the procedure: as §1
A batch of sterile material of Compound A was prepared as described above under the “Synthesis of Compound A”. The resulting Compound A material was then sterilized with gamma irradiation at up to 40 kGray and then formulated into the following aqueous formulations: […]
Various concentrations of Compound A formulation lots were prepared from 0.152, 0.30, 0.61, 0.91, 2.42, 0.46, 0.76%, W/V to provide for the ability to deliver different levels of Compound A per drop of formulation. For example one drop of the 0.152%, W/V of compound A would deliver 50 mcg per drop, 0.30%, W/V would deliver 100 mcg per drop, right through to 0.76% W/V delivering 250 mcg per drop. The formulation lots were then heated to undergo the curing step and convert the A1 polymorph form of Compound A to the A2 polymorph form of Compound A. The curing step was undertaken by placing the formulation lots at 40 degrees C. for 48 hours and then reverting the formulations lots to the desired longer term storage conditions for stability studies. […]

With `O=[N+]([O-])OC[C@H]1O[C@@H](n2cnc3c(NC4CCCC4)ncnc32)[C@H](O)[C@@H]1O` [Compound A, [2R,3S,4R,5R)-5-(6-(cyclopentylamino)-9H-purin-9-yl)-3,4-dihydroxytetrahydrofuran-2-yl)] methyl nitrate], the “average particle size change” value in data set [1] (40 degrees C, after 15 hours to 108 hours) was “remained effectively constant”; in data set [1] (40 degrees C, over 15 hours), “increased significantly”. For the same molecule, the “time over which XRPD peak intensity differences (crystal habit) changed” value in data set [1] (40 degrees C, constant thereafter) is “up to 9 hours”. In addition, the entries for the “polymorph content A1 (XRPD)” value in data set [1] (108 hours at 40 degrees C) and in data set [1] (time zero) were 0% and “about 74%”, respectively. The figures for the “polymorph content A2 (XRPD)” value in data set [1] (108 hours at 40 degrees C) and in data set [1] (time zero) were 100% and ~26%, respectively.
`O=[N+]([O-])OC[C@H]1O[C@@H](n2cnc3c(NC4CCCC4)ncnc32)[C@H](O)[C@@H]1O` [Form A1]: in data set [2] (aqueous suspension after habit change at 2-8° C), the “resuspendability by sonication and shaking” value is given as “much more difficult to resuspend”. Moreover, in data set [2] (aqueous suspension stored at 2-8° C, 6 to 12 months), the “particle length along the longest dimension (many particles)” value is “over 100 microns”.
Turning to `O=[N+]([O-])OC[C@H]1O[C@@H](n2cnc3c(NC4CCCC4)ncnc32)[C@H](O)[C@@H]1O` [Form A2], in data set [3], the “changes to particle habit, size or polymorph content on storage” value is on record as “limit any further changes”.
